Assay [1] has as its target T1, MK2 (Homo sapiens, UniProt P49137).
T1 construct: endogenous in cells; host or cells: Malme-3M
Briefly: ELISA MK2 cell-based activity assay (phospho-HSP-27), Malme-3M cells. As to conditions: for Ratio to Control / Pho-HSP27: Malme-3M cells, compound 20 μM, 30 minutes, 37° C.; for Pho-HSP27: phospho-HSP27 ELISA; for response in phospho-HSP27 ELISA, overall ranking: overall statement on compounds tested at 20 μM (Malme-3M and RMVEC cells). As for the experimental part:
(§1) The MK2 activator candidates, identified using the artificial intelligence (AI)-assisted docking approach, were tested in activity assays for lead selection against the MK2 target. MK2 activation was assessed using (a) a cell-based assay using rat microvascular endothelial cells (RMVEC) and (b) human cancer skin fibroblast cells (Malme-3M). In both assays, an Enzyme-linked ImmunoSorbent Assay (ELISA) technique was used to measure (HSP-27) phosphorylation (DYC2314-2, R&D Systems). Both cell lines were grown to confluency in a 96-well tissue culture plate and treated at 37° C. for 30 minutes with the test compounds at concentrations of 20 μM. The cells were subsequently lysed with a lysis solution containing 0.5% Triton X-100 and anti-proteolysis agents. The resulting lysates were then loaded onto ELISA plates coated with anti-rat phospho-HSP27. After incubation and washing, the plates were treated with an horseradish peroxidase (HRP)-conjugated anti-phospho-HSP27 secondary antibody and then measured for chemiluminescence. Higher activity compounds, acting on MK2, induced higher levels of HSP-27 phosphorylation, as measured by the ELISA.
For orientation: In an ELISA, binding on a coated surface is turned into a signal by an enzyme label.

For assay [2], the target named is T2, MK2 (Rattus norvegicus, UniProt Q80ZF4).
T2 construct: endogenous in cells; host or cells: rat microvascular endothelial cells (RMVEC)
T2 sequence (Q80ZF4 1-386): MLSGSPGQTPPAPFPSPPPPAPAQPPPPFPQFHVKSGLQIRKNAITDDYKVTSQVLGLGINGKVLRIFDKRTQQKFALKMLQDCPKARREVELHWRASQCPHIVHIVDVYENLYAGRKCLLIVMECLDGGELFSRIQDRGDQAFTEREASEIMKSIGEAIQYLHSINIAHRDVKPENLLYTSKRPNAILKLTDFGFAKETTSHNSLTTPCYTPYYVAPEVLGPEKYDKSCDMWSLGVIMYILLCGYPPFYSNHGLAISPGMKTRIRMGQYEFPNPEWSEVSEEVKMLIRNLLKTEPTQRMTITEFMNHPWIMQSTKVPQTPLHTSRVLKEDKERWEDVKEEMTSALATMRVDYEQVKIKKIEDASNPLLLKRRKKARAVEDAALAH
Briefly: ELISA MK2 cell-based activity assay (phospho-HSP-27), RMVEC cells. The following applies: compound 20 μM, 30 minutes, 37° C.; for Average Response HSP27: phospho-HSP27 ELISA. As for the experimental part:
as §1

Assay [3] has as its target T2, MK2. Kind of assay: Western blot of HSP-27 phosphorylation in rat microvascular endothelial cells. Type of assay: cell-based. As to conditions: 20 μM, 30 minutes, 37° C., of five compounds tested. As for the experimental part: In order to assess the functional activity of the putative MK2 binding activators, a series of these compounds (i.e., Leflunomide, Netupitant, Paliperidone, Lomitapide, and Perospirone) were analyzed by Western blot analysis. Rat microvascular endothelial cells were grown to confluency in 35 mm tissue culture dishes. The cells were treated with or without the putative MK2 binding activators at 20 μM concentration for 30 minutes at 37° C. As a positive control, one of the cell dishes was exposed to UV light for ca. 10 minutes. […] The membrane was washed, treated with a chemiluminescence substrate, and digitally imaged followed by quantification by densitometry. The intensity of detected signal was proportional to the MK2 activation potency of the tested compound.
Western blot results from the compounds analyzed by the above-described method are provided in FIG. 1 and graphically as a histogram plot in FIG. 2, after normalization for HSP-27 signal.
The two bands seen in each lane of the blots represent monomeric and dimeric forms of both phosphorylated and unphosphorylated HSP-27. The intensity of the bands was quantified by densitometry and then each raw readout was normalized by the signal intensity of unphosphorylated HSP-27, in order to correct for any differences in lysate load across the various treatment conditions.

From patent publication US20230414575A1, “MK2 ACTIVATING COMPOUNDS FOR USE IN TREATING VASCULAR LEAK AND ENDOTHELIAL BARRIER DISORDERS” (Akttyva Therapeutics, Inc., priority 2020, published 2023) come the findings set out here.

T1 sequence (P49137 whole entry): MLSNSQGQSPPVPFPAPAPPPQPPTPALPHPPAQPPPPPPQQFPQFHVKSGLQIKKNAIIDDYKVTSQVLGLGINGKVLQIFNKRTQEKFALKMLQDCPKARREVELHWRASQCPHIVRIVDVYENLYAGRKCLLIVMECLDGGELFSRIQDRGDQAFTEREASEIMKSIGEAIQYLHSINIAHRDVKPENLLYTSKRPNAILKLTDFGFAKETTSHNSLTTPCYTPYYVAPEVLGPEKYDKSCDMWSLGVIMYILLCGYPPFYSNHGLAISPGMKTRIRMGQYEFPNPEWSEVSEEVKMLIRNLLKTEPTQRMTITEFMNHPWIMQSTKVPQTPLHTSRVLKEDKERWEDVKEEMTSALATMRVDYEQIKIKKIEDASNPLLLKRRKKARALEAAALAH

On to `Nc1ccccc1NC(=O)c1ccc(CNc2nccc(-c3cccnc3)n2)cc1` [Compound 38, Mocetinostat], for which, on MK2 [1], the “Ratio to Control” value is recorded as 0.9 and the Pho-HSP27 is listed as 21.2 pg/mL. For the same molecule, at MK2 [2], the “Ratio Compound/control” value was found to be 1.0 and the “Average Response HSP27” value is 17.8 pg/mL.

For the molecule `Cc1nc2ccc(CN(C)c3ccc(C(=O)N[C@@H](CCC(=O)O)C(=O)O)s3)cc2c(=O)[nH]1` [Compound 41, Raltitrexed], on MK2 [1], the “Ratio to Control” value came out at 1.7 and the Pho-HSP27 was 38.7 pg/mL. Besides, at MK2 [2], the “Ratio Compound/control” value was determined as 1.1 and the “Average Response HSP27” value is 25.4 pg/mL.

Regarding `Cc1cn(-c2cc(NC(=O)c3ccc(C)c(Nc4nccc(-c5cccnc5)n4)c3)cc(C(F)(F)F)c2)cn1` [Compound 51, Nilotinib], on MK2 [1], the “Ratio to Control” value turned out to be 0.6 and the Pho-HSP27 was found to be 12.7 pg/mL. Moreover, on MK2 [2], the “Ratio Compound/control” value came to 1.1 and the “Average Response HSP27” value is given as 18.2 pg/mL.

As for `Cc1cn(-c2cc(NC(=O)c3ccc(C)c(Nc4nccc(-c5cnccn5)n4)c3)cc(C(F)(F)F)c2)cn1` [Compound 52, Radotinib], on MK2 [1], the “Ratio to Control” value amounted to 0.9 and the Pho-HSP27 was found to be 20.8 pg/mL. At MK2 [2], the “Ratio Compound/control” value is reported as 1.0 and the “Average Response HSP27” value is listed as 21.7 pg/mL.

In the case of `CN(C)Cc1c(C(=O)NCCOc2ccc(C(=O)NO)cc2)oc2ccccc12` [Compound 54, Abexinostat], at MK2 [1], the “Ratio to Control” value is recorded as 37.2; the Pho-HSP27 was 836.0 pg/mL; the “response in phospho-HSP27 ELISA, overall ranking” value (shortened to “response in phospho-HSP27 ELISA”) is given as “most robust response”. Moreover, on MK2 [2], the “Ratio Compound/control” value turned out to be 2.3 and the “Average Response HSP27” value amounted to 48.4 pg/mL.

For the molecule `Fc1ccccc1-c1nc2ccn(Cc3ccc(-c4ccc(C(F)(F)F)cc4C(F)(F)F)nn3)cc-2n1` [Compound 66, Tegobuvir], on MK2 [1], the “Ratio to Control” value came to 0.9 and the Pho-HSP27 was determined as 20.9 pg/mL. Further, on MK2 [2], the “Ratio Compound/control” value worked out at 1.2 and the “Average Response HSP27” value was 26.2 pg/mL.

Consider `O=C(NC1CCN(CCCCC2(C(=O)NCC(F)(F)F)c3ccccc3-c3ccccc32)CC1)c1ccccc1-c1ccc(C(F)(F)F)cc1` [Compound 68, Lomitapide], for which, on MK2 [1], the “Ratio to Control” value was 37.7; the Pho-HSP27 was 848.5 pg/mL; the “response in phospho-HSP27 ELISA” value was “most robust response”. On MK2 [2], the “Ratio Compound/control” value is listed as 3.4 and the “Average Response HSP27” value is 39.2 pg/mL. Moreover, at MK2 [3], the “increase in HSP-27 phosphorylation (Western blot, normalized for HSP-27 signal)” value is reported as “strongest increase in HSP-27 phosphorylation”.

For the molecule `Cc1cc(C(=O)Nc2cc(Nc3ccc4c(/C=C/c5ccccn5)n[nH]c4c3)ccc2F)n(C)n1` [Compound 74, Ag-13958], on MK2 [1], the “Ratio to Control” value is listed as 0.7 and the Pho-HSP27 was 15.2 pg/mL. Also, on MK2 [2], the “Ratio Compound/control” value amounted to 1.2 and the “Average Response HSP27” value was 20.4 pg/mL.

As for `O=C(Nc1ccc(-c2ccnc(Nc3ccc(N4CCOCC4)cc3)n2)cc1)C1CCCN1` (stereo not drawn) [Compound 78, Xl-019], on MK2 [1], the “Ratio to Control” value was 0.7 and the Pho-HSP27 is 15.0 pg/mL. For the same molecule, at MK2 [2], the “Ratio Compound/control” value came out at 0.6 and the “Average Response HSP27” value worked out at 15.2 pg/mL.

For the molecule `CC(=O)Nc1nc2c(Oc3cc(-c4ccc(C(F)(F)F)cc4)ncn3)cccc2s1` [Compound 83, Amg-517], on MK2 [1], the “Ratio to Control” value stood at 1.3 and the Pho-HSP27 is listed as 29.9 pg/mL. Moreover, on MK2 [2], the “Ratio Compound/control” value is given as 2.1 and the “Average Response HSP27” value came out at 33.7 pg/mL.

`O=C(O)CCn1c2c(c3ccccc31)C[C@H](NS(=O)(=O)c1ccc(F)cc1)CC2` [Compound 93, Ramatroban]: on MK2 [1], the “Ratio to Control” value is 1.5 and the Pho-HSP27 turned out to be 33.2 pg/mL. For the same molecule, at MK2 [2], the “Ratio Compound/control” value is 1.3 and the “Average Response HSP27” value is on record as 27.6 pg/mL.

For `O=C(O)c1ccc2nc(-c3cc(Cl)cc(Cl)c3)oc2c1` [Compound 95, Tafamidis], on MK2 [1], the “Ratio to Control” value is given as 1.1 and the Pho-HSP27 is given as 24.1 pg/mL. Besides, at MK2 [2], the “Ratio Compound/control” value was found to be 0.8 and the “Average Response HSP27” value is 18.6 pg/mL.

For the molecule `COc1ccc(-c2cc(C(F)F)nn2-c2ccc(S(N)(=O)=O)cc2)cc1F` [Compound 113, Deracoxib], at MK2 [1], the “Ratio to Control” value came out at 1.2 and the Pho-HSP27 is listed as 26.2 pg/mL. Further, on MK2 [2], the “Ratio Compound/control” value is 1.2 and the “Average Response HSP27” value is given as 26.5 pg/mL.

For the molecule `OC[C@@H](O)CN1CCN(c2ccccc2)CC1` [Levodropropizine], on MK2 [1], the “Ratio to Control” value is reported as 27.6; the Pho-HSP27 was 621.3 pg/mL; the “response in phospho-HSP27 ELISA” value is “most robust response”. At MK2 [2], the “Ratio Compound/control” value is listed as 2.3 and the “Average Response HSP27” value is listed as 47.1 pg/mL.
